Measured values as given in the supplement of paper PMC10307832.

How the values were obtained:
Test in all cases: relative viability (nuclei count vs DMSO), 5 days (fraction); higher = more cells survive
SK-MES-1 = system: SK-MES-1
Summary of the method: (§1)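 Five library-drug doses in √10 steps were combined with a fixed anchor-drug dose, or a single drug was given alone, by pin tool to lung cancer cell lines in 1536-well plates the day after seeding. Nuclei were stained and counted after 5 days. Relative viability is the nuclei count in treated wells over that in vehicle wells, taken as the median of duplicate plates.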

COR-L 105 = system: COR-L 105
Summary of the method: as §1

HCC-78 = system: HCC-78
Summary of the method: as §1

PC-14 = system: PC-14
Summary of the method: as §1

201T = system: 201T
Summary of the method: as §1

HCC-366 = system: HCC-366
Summary of the method: as §1

NCI-H1993 = system: NCI-H1993
Summary of the method: as §1

NCI-H1563 = system: NCI-H1563
Summary of the method: as §1

BEN = system: BEN
Summary of the method: as §1

LK-2 = system: LK-2
Summary of the method: as §1

NCI-H1915 = system: NCI-H1915
Summary of the method: as §1

NCI-H1734 = system: NCI-H1734
Summary of the method: as §1

NCI-H2405 = system: NCI-H2405
Summary of the method: as §1

EKVX = system: EKVX
Summary of the method: as §1

NCI-H661 = system: NCI-H661
Summary of the method: as §1

NCI-H460 = system: NCI-H460
Summary of the method: as §1

COR-L23 = system: COR-L23
Summary of the method: as §1

HCC-15 = system: HCC-15
Summary of the method: as §1

A-427 = system: A-427
Summary of the method: as §1

EMC-BAC-2 = system: EMC-BAC-2
Summary of the method: as §1

NCI-H647 = system: NCI-H647
Summary of the method: as §1

HOP-62 = system: HOP-62
Summary of the method: as §1

With `Cc1cn(-c2cc(NC(=O)c3ccc(C)c(Nc4nccc(-c5cccnc5)n4)c3)cc(C(F)(F)F)c2)cn1` [Nilotinib] + C[C@]1(O)C[C@@H](c2nc(-c3ccc4ccc(-c5ccccc5)nc4c3)c3c(N)nccn32)C1 [Linsitinib] (partner 1 µM) the relative viability (SK-MES-1; first compound 0.003162 µM) was 1.29, the relative viability (SK-MES-1; first compound 0.01 µM) was 1.16 and the relative viability (SK-MES-1; first compound 0.03162 µM) was 1.12. The relative viability (COR-L 105; first compound 0.001 µM) was 0.913, the relative viability (COR-L 105; first compound 0.01 µM) was 1 and the relative viability (COR-L 105; first compound 0.03162 µM) was 0.849. It also gave a relative viability (COR-L 105; first compound 0.1 µM) of 0.823, a relative viability (HCC-78; first compound 0.001 µM) of 0.582 and a relative viability (HCC-78; first compound 0.003162 µM) of 0.522. The relative viability (HCC-78; first compound 0.01 µM) was 0.637, the relative viability (HCC-78; first compound 0.03162 µM) was 0.612 and the relative viability (HCC-78; first compound 0.1 µM) was 0.604. For the same compound, the relative viability (PC-14; first compound 0.001 µM) was 0.883, the relative viability (PC-14; first compound 0.003162 µM) was 1.05 and the relative viability (PC-14; first compound 0.01 µM) was 1.07. The relative viability (PC-14; first compound 0.03162 µM) was 0.898, the relative viability (PC-14; first compound 0.1 µM) was 1.01 and the relative viability (201T; first compound 0.001 µM) was 0.942. The relative viability (201T; first compound 0.003162 µM) was 1.06, the relative viability (201T; first compound 0.01 µM) was 1.12 and the relative viability (HCC-366; first compound 0.001 µM) was 0.577. The relative viability (HCC-366; first compound 0.003162 µM) was 1.33, the relative viability (HCC-366; first compound 0.01 µM) was 0.857 and the relative viability (HCC-366; first compound 0.03162 µM) was 0.64. For the same compound, the relative viability (HCC-366; first compound 0.1 µM) was 0.472, the relative viability (NCI-H1993; first compound 0.001 µM) was 0.808 and the relative viability (NCI-H1993; first compound 0.003162 µM) was 0.74. The relative viability (NCI-H1993; first compound 0.01 µM) was 0.702, the relative viability (NCI-H1993; first compound 0.03162 µM) was 0.804 and the relative viability (NCI-H1993; first compound 0.1 µM) was 0.769. The relative viability (NCI-H1563; first compound 0.001 µM) was 1.13, the relative viability (NCI-H1563; first compound 0.003162 µM) was 1.17 and the relative viability (NCI-H1563; first compound 0.01 µM) was 1.17. For the same compound, the relative viability (NCI-H1563; first compound 0.03162 µM) was 1.15, the relative viability (BEN; first compound 0.001 µM) was 0.95 and the relative viability (BEN; first compound 0.003162 µM) was 0.997. It also gave a relative viability (BEN; first compound 0.01 µM) of 1.26, a relative viability (BEN; first compound 0.1 µM) of 1.05 and a relative viability (LK-2; first compound 0.001 µM) of 0.517. For the same compound, the relative viability (LK-2; first compound 0.003162 µM) was 0.515, the relative viability (LK-2; first compound 0.01 µM) was 0.442 and the relative viability (LK-2; first compound 0.03162 µM) was 0.405. The relative viability (LK-2; first compound 0.1 µM) was 0.487, the relative viability (NCI-H1915; first compound 0.001 µM) was 1.01 and the relative viability (NCI-H1915; first compound 0.003162 µM) was 1.09. The relative viability (NCI-H1915; first compound 0.03162 µM) was 1.06, the relative viability (NCI-H1915; first compound 0.1 µM) was 1.09 and the relative viability (NCI-H1734; first compound 0.001 µM) was 0.882. For the same compound, the relative viability (NCI-H1734; first compound 0.003162 µM) was 0.977, the relative viability (NCI-H1734; first compound 0.01 µM) was 0.972 and the relative viability (NCI-H1734; first compound 0.03162 µM) was 0.669. It also gave a relative viability (NCI-H1734; first compound 0.1 µM) of 0.561, a relative viability (NCI-H2405; first compound 0.001 µM) of 0.976 and a relative viability (NCI-H2405; first compound 0.003162 µM) of 0.916. It also gave a relative viability (NCI-H2405; first compound 0.01 µM) of 0.838, a relative viability (NCI-H2405; first compound 0.03162 µM) of 0.789 and a relative viability (NCI-H2405; first compound 0.1 µM) of 0.74. For the same compound, the relative viability (EKVX; first compound 0.001 µM) was 0.866, the relative viability (EKVX; first compound 0.003162 µM) was 1.26 and the relative viability (EKVX; first compound 0.01 µM) was 1.62. For the same compound, the relative viability (EKVX; first compound 0.03162 µM) was 0.955, the relative viability (EKVX; first compound 0.1 µM) was 1.09 and the relative viability (NCI-H661; first compound 0.001 µM) was 0.508. It also gave a relative viability (NCI-H661; first compound 0.003162 µM) of 0.472, a relative viability (NCI-H661; first compound 0.01 µM) of 0.612 and a relative viability (NCI-H661; first compound 0.03162 µM) of 0.501. It also gave a relative viability (NCI-H661; first compound 0.1 µM) of 0.586, a relative viability (NCI-H460; first compound 0.001 µM) of 0.586 and a relative viability (NCI-H460; first compound 0.003162 µM) of 1.1. The relative viability (NCI-H460; first compound 0.01 µM) was 1.75, the relative viability (NCI-H460; first compound 0.03162 µM) was 0.319 and the relative viability (NCI-H460; first compound 0.1 µM) was 0.507. It also gave a relative viability (COR-L23; first compound 0.001 µM) of 0.777, a relative viability (COR-L23; first compound 0.003162 µM) of 1.18 and a relative viability (COR-L23; first compound 0.01 µM) of 1.24. For the same compound, the relative viability (COR-L23; first compound 0.03162 µM) was 0.781, the relative viability (COR-L23; first compound 0.1 µM) was 0.903 and the relative viability (HCC-15; first compound 0.001 µM) was 0.874. For the same compound, the relative viability (HCC-15; first compound 0.003162 µM) was 1.01, the relative viability (HCC-15; first compound 0.01 µM) was 0.987 and the relative viability (HCC-15; first compound 0.03162 µM) was 0.743. For the same compound, the relative viability (HCC-15; first compound 0.1 µM) was 0.744, the relative viability (A-427; first compound 0.001 µM) was 1.13 and the relative viability (A-427; first compound 0.01 µM) was 1.26. For the same compound, the relative viability (A-427; first compound 0.03162 µM) was 1.16, the relative viability (A-427; first compound 0.1 µM) was 1.01 and the relative viability (EMC-BAC-2; first compound 0.001 µM) was 0.812. It also gave a relative viability (EMC-BAC-2; first compound 0.003162 µM) of 0.954, a relative viability (EMC-BAC-2; first compound 0.01 µM) of 1.1 and a relative viability (EMC-BAC-2; first compound 0.03162 µM) of 0.66. The relative viability (EMC-BAC-2; first compound 0.1 µM) was 0.839, the relative viability (NCI-H647; first compound 0.001 µM) was 1.13 and the relative viability (NCI-H647; first compound 0.003162 µM) was 1.43. The relative viability (NCI-H647; first compound 0.03162 µM) was 1.07, the relative viability (NCI-H647; first compound 0.1 µM) was 1.02 and the relative viability (HOP-62; first compound 0.001 µM) was 0.694. The relative viability (HOP-62; first compound 0.003162 µM) was 0.853, the relative viability (HOP-62; first compound 0.01 µM) was 0.863 and the relative viability (HOP-62; first compound 0.03162 µM) was 0.715. For the same compound, the relative viability (HOP-62; first compound 0.1 µM) was 0.744.
